Assay results published in US9149038B2, “4-amino-6-(heterocyclic)picolinates and 6-amino-2-(heterocyclic)pyrimidine-4-carboxylates and their use as herbicides” (Dow AgroSciences LLC, priority 2013, dated 2015).
Read-outs that look alike come from different tables or passages of the source.

Legend:
[1] = system: Key Grass and Sedge Weeds as well as Grass Crops; assay: Post-Emergent Test II: postemergent herbicidal activity, visual rating after 14 d (Table 8); assay type: in vivo; conditions: post-emergence, 336 h; for pest or weed control at 35 g/ha: 35 g ai/ha; for pest or weed control at 70 g/ha: 70 g ai/ha; for pest or weed control at 140 g/ha: 140 g ai/ha
Outline: (§1)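 Visual scoring at 14 d, 0 (no injury) to 100 (complete kill), relative to untreated plants. Postemergent overhead track-sprayer application, 187 L/ha, at a top rate plus serial ½×–1/16× rates, to plants grown 7–21 d at about 23–29° C day under a 15 h photoperiod, then subirrigated.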

[2] = system: Key Broadleaf Weed and Crop Species; assay: Post-Emergent Test II: postemergent herbicidal activity, visual rating after 14 d (Table 7); assay type: in vivo; conditions: post-emergence, 336 h; for pest or weed control at 35 g/ha: 35 g ai/ha; for pest or weed control at 70 g/ha: 70 g ai/ha; for pest or weed control at 140 g/ha: 140 g ai/ha
Outline: as §1

[3] = barnyardgrass (Echinochloa crus-galli), read-out: Visual Growth Reduction (%) 14 Days After Application ECHCG
[4] = giant foxtail (Setaria faberi), read-out: Visual Growth Reduction (%) 14 Days After Application SETFA
[5] = maize, corn (Zea mays), read-out: Visual Growth Reduction (%) 14 Days After Application ZEAMX
[6] = rice (Oryza sativa), read-out: Visual Growth Reduction (%) 14 Days After Application ORYSA
[7] = wheat, spring (Triticum aestivum), read-out: Visual Growth Reduction (%) 14 Days After Application TRZAS
[8] = yellow nutsedge (Cyperus esculentus), read-out: Visual Growth Reduction (%) 14 Days After Application CYPES
[9] = lambsquarters (Chenopodium album), read-out: Visual Growth Reduction (%) 14 Days After Application CHEAL
[10] = oilseed rape, canola (Brassica napus), read-out: Visual Growth Reduction (%) 14 Days After Application BRSNN
[11] = redroot pigweed (Amaranthus retroflexus), read-out: Visual Growth Reduction (%) 14 Days After Application AMARE
[12] = sunflower (Helianthus annuus), read-out: Visual Growth Reduction (%) 14 Days After Application HELAN
[13] = velvetleaf (Abutilon theophrasti), read-out: Visual Growth Reduction (%) 14 Days After Application ABUTH
[14] = wild poinsettia (Euphorbia heterophylla), read-out: Visual Growth Reduction (%) 14 Days After Application EPHHL

COC(=O)c1nc(-c2cc3c(cc2F)OCO3)cc(N)c1Cl [Compound 45]
85 to 94%: pest or weed control at 140 g/ha [1, 3] | pest or weed control at 140 g/ha [1, 4] | pest or weed control at 35 g/ha [2, 9] | pest or weed control at 70 g/ha [2, 14]
95 to 100%: pest or weed control at 70 g/ha [2, 9] | pest or weed control at 140 g/ha [2, 9] | pest or weed control at 70 g/ha [2, 10] | pest or weed control at 140 g/ha [2, 10] | pest or weed control at 35 g/ha [2, 11] | pest or weed control at 70 g/ha [2, 11] | pest or weed control at 140 g/ha [2, 11] | pest or weed control at 35 g/ha [2, 13] | pest or weed control at 70 g/ha [2, 13] | pest or weed control at 140 g/ha [2, 13] | pest or weed control at 140 g/ha [2, 14]
75 to 84%: pest or weed control at 35 g/ha [1, 3] | pest or weed control at 70 g/ha [1, 3] | pest or weed control at 140 g/ha [1, 5] | pest or weed control at 35 g/ha [2, 10] | pest or weed control at 140 g/ha [2, 12] | pest or weed control at 35 g/ha [2, 14]
45 to 59%: pest or weed control at 35 g/ha [1, 5] | pest or weed control at 35 g/ha [1, 6] | pest or weed control at 70 g/ha [1, 7]
30 to 44%: pest or weed control at 35 g/ha [1, 7] | pest or weed control at 35 g/ha [1, 8] | pest or weed control at 70 g/ha [1, 8]
60 to 74%: pest or weed control at 35 g/ha [1, 4] | pest or weed control at 70 g/ha [1, 4] | pest or weed control at 70 g/ha [1, 5] | pest or weed control at 70 g/ha [1, 6] | pest or weed control at 140 g/ha [1, 6] | pest or weed control at 140 g/ha [1, 7] | pest or weed control at 140 g/ha [1, 8] | pest or weed control at 35 g/ha [2, 12] | pest or weed control at 70 g/ha [2, 12]
